# ChEMBL document CHEMBL5154644, “Design, Synthesis, and Structure-Activity Relationship Optimization of Pyrazolopyrimidine Amide Inhibitors of Phosphoinositide 3-Kinase γ (PI3Kγ)” (J Med Chem, 2022)
# Organism: Homo sapiens
# Experiment: Selectivity ratio of IC50 for inhibition of PI3Kalpha (unknown origin) to IC50 for inhibition of PI3Kgamma (unknown origin)
# Conditions: not given
row,SMILES,Ratio IC50
1,C[C@@H](C1CC1)N1Cc2cc(-c3ccn4nc(N)c(C(=O)NC5CC5)c4n3)cc(OC(F)F)c2C1=O,330

# Target: T1, Phosphatidylinositol 4,5-bisphosphate 3-kinase catalytic subunit delta isoform (Homo sapiens, UniProt O00329)
# T1 sequence (O00329 whole entry): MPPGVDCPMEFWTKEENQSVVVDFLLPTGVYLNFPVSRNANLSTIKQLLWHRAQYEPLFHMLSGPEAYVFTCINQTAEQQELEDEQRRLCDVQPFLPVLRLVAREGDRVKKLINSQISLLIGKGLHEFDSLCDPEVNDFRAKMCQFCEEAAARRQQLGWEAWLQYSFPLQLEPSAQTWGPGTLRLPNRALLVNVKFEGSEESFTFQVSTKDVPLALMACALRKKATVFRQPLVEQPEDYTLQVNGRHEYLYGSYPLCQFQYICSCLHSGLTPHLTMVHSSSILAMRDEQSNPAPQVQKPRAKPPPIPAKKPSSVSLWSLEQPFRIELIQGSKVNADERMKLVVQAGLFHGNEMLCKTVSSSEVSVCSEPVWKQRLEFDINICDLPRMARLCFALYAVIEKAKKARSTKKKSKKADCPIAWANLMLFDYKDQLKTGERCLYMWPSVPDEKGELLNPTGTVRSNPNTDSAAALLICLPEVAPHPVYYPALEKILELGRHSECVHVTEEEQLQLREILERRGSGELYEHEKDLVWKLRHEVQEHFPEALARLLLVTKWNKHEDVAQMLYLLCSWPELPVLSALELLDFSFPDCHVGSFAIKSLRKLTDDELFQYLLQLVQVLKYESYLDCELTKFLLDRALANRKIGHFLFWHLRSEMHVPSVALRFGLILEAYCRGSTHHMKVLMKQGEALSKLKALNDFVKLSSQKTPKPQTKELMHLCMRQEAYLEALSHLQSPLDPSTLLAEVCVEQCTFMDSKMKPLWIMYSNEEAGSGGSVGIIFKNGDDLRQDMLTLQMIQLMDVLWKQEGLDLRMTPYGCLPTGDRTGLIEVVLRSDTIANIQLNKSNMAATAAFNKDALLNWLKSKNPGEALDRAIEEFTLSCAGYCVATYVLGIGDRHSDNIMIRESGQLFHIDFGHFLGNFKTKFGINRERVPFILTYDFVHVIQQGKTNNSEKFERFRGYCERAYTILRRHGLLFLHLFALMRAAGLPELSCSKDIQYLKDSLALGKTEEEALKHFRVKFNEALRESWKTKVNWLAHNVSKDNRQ
# Experiment: Inhibition of PI3Kdelta (unknown origin) using PIP2 as substrate preincubated for 1 hr followed by substrate addition and measured after 60 mins in presence of ATP by ADP-glo assay
# Conditions: not given
row,SMILES,IC50 [nM]
1,CNS(=O)(=O)c1cc(-c2ccn3nc(N)c(C(=O)NC4CC4)c3n2)cc2c1C(=O)N([C@@H](C)C1CC1)C2,256
2,C[C@@H](C1CC1)N1Cc2cc(-c3ccn4nc(N)c(C(=O)NC5CC5)c4n3)cc(NS(C)(=O)=O)c2C1=O,417
3,CC(C)S(=O)(=O)c1cc(-c2ccn3nc(N)c(C(=O)NC4CC4)c3n2)cc2c1C(=O)N([C@@H](C)C1CC1)C2,714
4,C[C@@H](C1CC1)N1Cc2cc(-c3ccn4nc(N)c(C(=O)NC5CC5)c4n3)cc(OC(F)F)c2C1=O,2120

# Target: Phosphatidylinositol 4,5-bisphosphate 3-kinase catalytic subunit alpha isoform (Homo sapiens, UniProt P42336)
# Sequence (P42336 whole entry, canonical isoform): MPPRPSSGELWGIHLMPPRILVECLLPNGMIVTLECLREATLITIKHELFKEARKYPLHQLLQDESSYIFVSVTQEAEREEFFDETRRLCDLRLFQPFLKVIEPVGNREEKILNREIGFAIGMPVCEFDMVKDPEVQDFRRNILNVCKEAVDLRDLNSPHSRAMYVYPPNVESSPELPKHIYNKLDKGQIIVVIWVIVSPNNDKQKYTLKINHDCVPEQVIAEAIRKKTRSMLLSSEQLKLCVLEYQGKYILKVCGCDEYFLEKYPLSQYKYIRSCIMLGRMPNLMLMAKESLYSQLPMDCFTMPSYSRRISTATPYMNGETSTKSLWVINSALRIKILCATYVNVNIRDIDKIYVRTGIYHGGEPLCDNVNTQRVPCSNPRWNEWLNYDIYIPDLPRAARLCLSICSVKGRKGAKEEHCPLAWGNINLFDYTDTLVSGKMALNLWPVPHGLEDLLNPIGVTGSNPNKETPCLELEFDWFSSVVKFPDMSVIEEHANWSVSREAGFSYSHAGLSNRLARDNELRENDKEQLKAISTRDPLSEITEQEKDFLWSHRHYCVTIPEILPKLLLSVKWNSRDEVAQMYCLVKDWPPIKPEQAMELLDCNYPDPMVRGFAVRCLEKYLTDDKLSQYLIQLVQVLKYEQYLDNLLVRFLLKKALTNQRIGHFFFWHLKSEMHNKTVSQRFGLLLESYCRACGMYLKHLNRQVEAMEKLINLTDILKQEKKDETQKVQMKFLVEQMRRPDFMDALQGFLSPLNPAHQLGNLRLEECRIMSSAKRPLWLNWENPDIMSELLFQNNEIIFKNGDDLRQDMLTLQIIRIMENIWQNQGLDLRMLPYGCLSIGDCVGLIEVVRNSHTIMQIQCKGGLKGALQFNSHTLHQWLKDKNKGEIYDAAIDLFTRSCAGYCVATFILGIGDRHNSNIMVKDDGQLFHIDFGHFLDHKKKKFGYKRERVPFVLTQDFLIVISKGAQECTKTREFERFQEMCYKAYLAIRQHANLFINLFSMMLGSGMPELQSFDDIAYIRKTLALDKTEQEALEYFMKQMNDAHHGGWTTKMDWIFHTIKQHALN
# Experiment: Inhibition of PI3Kalpha (unknown origin) using PIP2 as substrate preincubated for 1 hr followed by substrate addition and measured after 60 mins in presence of ATP by ADP-glo assay
# Conditions: not given
row,SMILES,IC50 [nM]
1,CNS(=O)(=O)c1cc(-c2ccn3nc(N)c(C(=O)NC4CC4)c3n2)cc2c1C(=O)N([C@@H](C)C1CC1)C2,519
2,C[C@@H](C1CC1)N1Cc2cc(-c3ccn4nc(N)c(C(=O)NC5CC5)c4n3)cc(NS(C)(=O)=O)c2C1=O,590
3,CC(C)S(=O)(=O)c1cc(-c2ccn3nc(N)c(C(=O)NC4CC4)c3n2)cc2c1C(=O)N([C@@H](C)C1CC1)C2,952
4,C[C@@H](C1CC1)N1Cc2cc(-c3ccn4nc(N)c(C(=O)NC5CC5)c4n3)cc(OC(F)F)c2C1=O,602

# Test system: not listed separately
# Experiment: Hepatic clearance in Sprague-Dawley rat by LC-MS/MS analysis
# Assay type: ADME
# Conditions: in vivo
row,SMILES,CLH [mL/min/kg]
1,Cc1cc(-c2ccn3nc(N)c(-c4cnn(C)c4)c3n2)cc2c1C(=O)N([C@@H](C)C1CC1)C2,21.7
2,Cc1cc(-c2ccn3nc(N)c(C(=O)N[C@H]4C[C@H](O)C4)c3n2)cc2c1C(=O)N([C@@H](C)C1CC1)C2,40
3,Cc1cc(-c2ccn3ncc(C(=O)Nc4cnn(C)c4)c3n2)cc2c1C(=O)N([C@@H](C)C1CC1)C2,48.3
4,Cc1cc(-c2ccn3nc(N)c(C(=O)Nc4cnn(C)c4)c3n2)cc2c1C(=O)N([C@@H](C)C1CC1)C2,43.3

# Results, then the compound that gave them:
row,CLH [mL/min/kg],SMILES
1,35,CNS(=O)(=O)c1cc(-c2ccn3nc(N)c(C(=O)NC4CC4)c3n2)cc2c1C(=O)N([C@@H](C)C1CC1)C2
2,12,C[C@@H](C1CC1)N1Cc2cc(-c3ccn4nc(N)c(C(=O)NC5CC5)c4n3)cc(NS(C)(=O)=O)c2C1=O
3,28.3,CC(C)S(=O)(=O)c1cc(-c2ccn3nc(N)c(C(=O)NC4CC4)c3n2)cc2c1C(=O)N([C@@H](C)C1CC1)C2

# Test system: not listed separately
# Experiment: Metabolic stability in human hepatocytes assessed as intrinsic clearance per 10^6 cells at 0.5 uM by LC-MS/MS analysis
# Assay type: ADME, cell-based, Hepatocyte
# Conditions: read-out: CLH
row,SMILES,hepatocyte CLint at 0.5 µM [µL/min/1e6 cells]
1,Cc1cc(-c2ccn3nc(N)c(C(=O)N[C@H]4C[C@H](O)C4)c3n2)cc2c1C(=O)N([C@@H](C)C1CC1)C2,11.3
2,Cc1cc(-c2ccn3ncc(C(=O)Nc4cnn(C)c4)c3n2)cc2c1C(=O)N([C@@H](C)C1CC1)C2,7.31
3,Cc1cc(-c2ccn3nc(N)c(C(=O)Nc4cnn(C)c4)c3n2)cc2c1C(=O)N([C@@H](C)C1CC1)C2,13.4
4,C[C@@H](C1CC1)N1Cc2cc(-c3ccn4nc(N)c(C(=O)NC5CC5)c4n3)cc(OC(F)F)c2C1=O,40.4

# Second part, the compound after the results:
row,hepatocyte CLint at 0.5 µM [µL/min/1e6 cells],SMILES
1,4.46,CNS(=O)(=O)c1cc(-c2ccn3nc(N)c(C(=O)NC4CC4)c3n2)cc2c1C(=O)N([C@@H](C)C1CC1)C2
2,< 1.2,C[C@@H](C1CC1)N1Cc2cc(-c3ccn4nc(N)c(C(=O)NC5CC5)c4n3)cc(NS(C)(=O)=O)c2C1=O
3,2.43,CC(C)S(=O)(=O)c1cc(-c2ccn3nc(N)c(C(=O)NC4CC4)c3n2)cc2c1C(=O)N([C@@H](C)C1CC1)C2

# Organism: Homo sapiens
# Experiment: Selectivity ratio of IC50 for inhibition of PI3Kdelta (unknown origin) to IC50 for inhibition of PI3Kgamma (unknown origin)
# Conditions: not given
row,SMILES,Ratio IC50
1,CNS(=O)(=O)c1cc(-c2ccn3nc(N)c(C(=O)NC4CC4)c3n2)cc2c1C(=O)N([C@@H](C)C1CC1)C2,96
2,C[C@@H](C1CC1)N1Cc2cc(-c3ccn4nc(N)c(C(=O)NC5CC5)c4n3)cc(NS(C)(=O)=O)c2C1=O,157
3,C[C@@H](C1CC1)N1Cc2cc(-c3ccn4nc(N)c(C(=O)NC5CC5)c4n3)cc(OC(F)F)c2C1=O,907

# Target: T2, Phosphatidylinositol 4,5-bisphosphate 3-kinase catalytic subunit gamma isoform (Homo sapiens, UniProt P48736)
# T2 sequence (P48736 whole entry, canonical isoform): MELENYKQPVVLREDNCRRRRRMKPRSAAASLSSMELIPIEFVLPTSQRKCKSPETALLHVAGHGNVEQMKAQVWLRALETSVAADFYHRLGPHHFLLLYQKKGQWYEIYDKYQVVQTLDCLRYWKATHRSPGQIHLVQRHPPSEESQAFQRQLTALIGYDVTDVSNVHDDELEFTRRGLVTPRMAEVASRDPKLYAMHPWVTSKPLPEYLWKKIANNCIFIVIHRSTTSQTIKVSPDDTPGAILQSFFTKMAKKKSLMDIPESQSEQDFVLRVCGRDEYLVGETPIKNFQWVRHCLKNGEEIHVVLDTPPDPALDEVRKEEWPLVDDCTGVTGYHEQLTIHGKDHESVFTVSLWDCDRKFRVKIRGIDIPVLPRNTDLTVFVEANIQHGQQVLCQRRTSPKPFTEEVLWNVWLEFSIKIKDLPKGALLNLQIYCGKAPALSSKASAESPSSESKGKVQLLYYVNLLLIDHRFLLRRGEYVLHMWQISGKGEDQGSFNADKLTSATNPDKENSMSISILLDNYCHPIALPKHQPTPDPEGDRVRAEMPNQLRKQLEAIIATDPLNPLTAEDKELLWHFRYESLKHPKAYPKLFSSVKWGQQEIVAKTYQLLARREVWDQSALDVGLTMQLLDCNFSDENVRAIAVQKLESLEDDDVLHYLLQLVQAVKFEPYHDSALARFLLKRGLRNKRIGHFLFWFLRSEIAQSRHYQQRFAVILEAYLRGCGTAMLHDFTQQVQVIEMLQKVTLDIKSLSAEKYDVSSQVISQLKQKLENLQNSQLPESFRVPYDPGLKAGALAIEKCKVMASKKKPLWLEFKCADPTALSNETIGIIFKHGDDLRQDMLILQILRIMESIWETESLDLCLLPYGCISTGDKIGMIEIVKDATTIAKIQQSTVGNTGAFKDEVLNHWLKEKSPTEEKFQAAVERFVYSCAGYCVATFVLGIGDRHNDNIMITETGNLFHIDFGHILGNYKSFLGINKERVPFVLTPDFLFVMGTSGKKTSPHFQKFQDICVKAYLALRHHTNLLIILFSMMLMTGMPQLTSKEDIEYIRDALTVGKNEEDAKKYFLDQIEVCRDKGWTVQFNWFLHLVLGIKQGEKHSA
# Experiment: Inhibition of PI3Kgamma (unknown origin) using PIP2 as substrate preincubated for 1 hr followed by substrate addition and measured after 60 mins in presence of ATP by ADP-glo assay
# Conditions: not given
row,SMILES,IC50 [nM]
1,Cc1cc(-c2ccn3ncc(C(=O)Nc4cnn(C)c4)c3n2)cc2c1C(=O)N([C@@H](C)C1CC1)C2,34.1
2,Cc1cc(-c2ccn3nc(N)c(C(=O)Nc4cnn(C)c4)c3n2)cc2c1C(=O)N([C@@H](C)C1CC1)C2,3.4
3,C[C@@H](C1CC1)N1Cc2cc(-c3ccn4nc(N)c(C(=O)NC5CC5)c4n3)cc(OC(F)F)c2C1=O,1.8

# Now from value to compound:
row,IC50 [nM],SMILES
1,2.7,CNS(=O)(=O)c1cc(-c2ccn3nc(N)c(C(=O)NC4CC4)c3n2)cc2c1C(=O)N([C@@H](C)C1CC1)C2
2,2.7,C[C@@H](C1CC1)N1Cc2cc(-c3ccn4nc(N)c(C(=O)NC5CC5)c4n3)cc(NS(C)(=O)=O)c2C1=O

# Test system: not listed separately
# Experiment: Metabolic stability in rat hepatocyte assessed as intrinsic clearance per 10^8 cells at 0.5 uM by LC-MS/MS analysis
# Assay type: ADME, cell-based
# Conditions: hepatocytes
row,SMILES,hepatocyte intrinsic clearance [µL/min]
1,Cc1cc(-c2ccn3nc(N)c(C(=O)N[C@H]4C[C@H](O)C4)c3n2)cc2c1C(=O)N([C@@H](C)C1CC1)C2,15.7
2,Cc1cc(-c2ccn3ncc(C(=O)Nc4cnn(C)c4)c3n2)cc2c1C(=O)N([C@@H](C)C1CC1)C2,12.2
3,Cc1cc(-c2ccn3nc(N)c(C(=O)Nc4cnn(C)c4)c3n2)cc2c1C(=O)N([C@@H](C)C1CC1)C2,12.2
4,C[C@@H](C1CC1)N1Cc2cc(-c3ccn4nc(N)c(C(=O)NC5CC5)c4n3)cc(OC(F)F)c2C1=O,12.6

# Second part, the compound after the results:
row,hepatocyte intrinsic clearance [µL/min],SMILES
1,4.91,CNS(=O)(=O)c1cc(-c2ccn3nc(N)c(C(=O)NC4CC4)c3n2)cc2c1C(=O)N([C@@H](C)C1CC1)C2
2,< 1.2,C[C@@H](C1CC1)N1Cc2cc(-c3ccn4nc(N)c(C(=O)NC5CC5)c4n3)cc(NS(C)(=O)=O)c2C1=O
3,< 1.2,CC(C)S(=O)(=O)c1cc(-c2ccn3nc(N)c(C(=O)NC4CC4)c3n2)cc2c1C(=O)N([C@@H](C)C1CC1)C2

# Target: T2, Phosphatidylinositol 4,5-bisphosphate 3-kinase catalytic subunit gamma isoform
# Experiment: Inhibition of PI3Kgamma (unknown origin) in […] stimulated human THP-1 cells assessed as reduction in Akt phosphorylation level at Ser473 residue preincubated for 60 mins followed by rhMCP-1 stimulation and measured after 2 mins by AlphaLisa assay
# Assay type: cell-based
# Conditions: not given
row,SMILES,IC50 [nM]
1,Cc1cc(-c2ccn3ncc(C(=O)Nc4cnn(C)c4)c3n2)cc2c1C(=O)N([C@@H](C)C1CC1)C2,638
2,Cc1cc(-c2ccn3nc(N)c(C(=O)Nc4cnn(C)c4)c3n2)cc2c1C(=O)N([C@@H](C)C1CC1)C2,127
3,C[C@@H](C1CC1)N1Cc2cc(-c3ccn4nc(N)c(C(=O)NC5CC5)c4n3)cc(OC(F)F)c2C1=O,71

# Now from value to compound:
row,IC50 [nM],SMILES
1,36,CNS(=O)(=O)c1cc(-c2ccn3nc(N)c(C(=O)NC4CC4)c3n2)cc2c1C(=O)N([C@@H](C)C1CC1)C2
2,37,C[C@@H](C1CC1)N1Cc2cc(-c3ccn4nc(N)c(C(=O)NC5CC5)c4n3)cc(NS(C)(=O)=O)c2C1=O

# Target: CYP3A4 (Homo sapiens, UniProt P08684)
# Sequence (P08684 whole entry): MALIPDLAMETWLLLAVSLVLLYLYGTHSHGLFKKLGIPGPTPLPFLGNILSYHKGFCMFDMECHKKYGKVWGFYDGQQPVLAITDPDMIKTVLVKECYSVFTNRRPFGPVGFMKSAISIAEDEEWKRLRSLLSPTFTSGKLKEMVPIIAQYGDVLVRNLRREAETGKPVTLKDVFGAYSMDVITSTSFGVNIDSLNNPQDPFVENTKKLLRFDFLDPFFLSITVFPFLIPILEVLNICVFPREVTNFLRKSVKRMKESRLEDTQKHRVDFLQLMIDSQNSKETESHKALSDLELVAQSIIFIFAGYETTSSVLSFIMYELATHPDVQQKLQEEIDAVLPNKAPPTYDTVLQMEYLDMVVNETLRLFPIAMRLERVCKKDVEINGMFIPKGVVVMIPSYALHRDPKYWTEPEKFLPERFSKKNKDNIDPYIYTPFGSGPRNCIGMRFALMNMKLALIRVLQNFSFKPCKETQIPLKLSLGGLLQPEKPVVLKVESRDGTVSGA
# Experiment: in vitro
# Conditions: human liver microsomes, probe midazolam
# Description: Time dependent inhibition of CYP3A4 in human liver microsomes at 10 uM using midazolam as substrate preincubated for 30 mins in presence of NADPH by LC/MS/MS analysis relative to control
row,SMILES,"inhibition at 30 min, 10 µM [%]"
1,Cc1cc(-c2ccn3nc(N)c(C(=O)N[C@H]4C[C@H](O)C4)c3n2)cc2c1C(=O)N([C@@H](C)C1CC1)C2,14
2,Cc1cc(-c2ccn3ncc(C(=O)Nc4cnn(C)c4)c3n2)cc2c1C(=O)N([C@@H](C)C1CC1)C2,33
3,Cc1cc(-c2ccn3nc(N)c(C(=O)Nc4cnn(C)c4)c3n2)cc2c1C(=O)N([C@@H](C)C1CC1)C2,49
4,C[C@@H](C1CC1)N1Cc2cc(-c3ccn4nc(N)c(C(=O)NC5CC5)c4n3)cc(OC(F)F)c2C1=O,16

# More lines, now with the values ahead:
row,"inhibition at 30 min, 10 µM [%]",SMILES
1,34,CNS(=O)(=O)c1cc(-c2ccn3nc(N)c(C(=O)NC4CC4)c3n2)cc2c1C(=O)N([C@@H](C)C1CC1)C2
2,37,C[C@@H](C1CC1)N1Cc2cc(-c3ccn4nc(N)c(C(=O)NC5CC5)c4n3)cc(NS(C)(=O)=O)c2C1=O
